Test results from patent US9789149B2, “Vegetation water composition for treatment of inflammatory skin conditions” (CreAgri, Inc., priority 2005, dated 2017).

How the values were obtained:
erythema nodosum = assay: Example 1: patient with erythema nodosum treated with vegetation water composition tablets; assay type: in vivo, human; settings: 5 mg predonine for nearly 2.3 years
Protocol: In studies conducted in support of the invention, compositions comprised of the vegetation water composition were prepared and administered to test subjects, as set forth in Examples 1-6. Briefly, the pitted pulp of olives was masticated and pressed to produce a liquid-phase mixture and solid by-products. The solid by-products were separated and removed from the liquid-phase mixture by filtration and centrifugation. The liquid-phase mixture was allowed to rest to allow the oil and aqueous fractions to segregate. The aqueous phase was decanted and acidified with citric acid to adjust the pH between 2 and 4. The acidified aqueous fraction was concentrated by distillation under vacuum and dried by spray drying or oven drying under vacuum to obtain a powder, which was used to prepare the tablets as used in Examples 1-6. Each tablet contained 90 mg of olive pulp solids, 5.4 mg of total polyphenols, and ˜2.5 mg of hydroxytyrosol.
In another embodiment, the compositions of the invention are suitable for treating erythema nodosum. Erythema nodosum is an inflammatory condition characterized by tender, red bumps, and is usually found on the shins, but may also occur on other areas of the body such as the buttocks, calves, ankles, thighs, and upper extremities. Quite often, erythema nodosum is not a separate disease, but, rather, a sign of some other disease, or of sensitivity to a drug. […]

[1] = humans; Visioli et al., 2000; cited from earlier work
platelet aggregation = settings: Petroni et al., 1995; cited from earlier work
[2] = test system: peroxynitrite dependent DNA base modification and tyrosine nitration; settings: Deiana et al., 1999; cited from earlier work
[3] = test system: low density lipoprotein (LDL) oxidation; settings: Visioli and Galli, 1998; cited from earlier work
5-lipoxygenase = settings: de la Puerta et al., 1999; Kohyama et al., 1997; cited from earlier work
[4] = test system: various human cellular systems; settings: Manna et al., 2000; cited from earlier work
12-lipoxygenase = settings: de la Puerta et al., 1999; Kohyama et al., 1997; cited from earlier work

Compound	erythema nodosum lesions, prior treatment (erythema nodosum)	absorption following ingestion [1]	platelet aggregation (platelet aggregation)	peroxynitrite dependent DNA base modification and tyrosine nitration [2]	LDL oxidation [3]	inhibition of 5-lipoxygenase (5-lipoxygenase)	cytotoxicity induced by reactive oxygen species [4]	inhibition of 12-lipoxygenase (12-lipoxygenase)
C[C@]12C=CC(=O)C=C1CC[C@@H]1[C@@H]2[C@@H](O)C[C@@]2(C)[C@H]1CC[C@]2(O)C(=O)CO [predonine]	little resolution	–	–	–	–	–	–	–
OCCc1ccc(O)c(O)c1 [hydroxytyrosol, 3,4-dihydroxyphenethyl alcohol]	–	dose-dependently absorbed	prevents	inhibitory effect	prevents	inhibits	counteracts	inhibits
